Reference: patent US6384043B1, “Methods of alleviating pain sensations of the denuded eye with opioid analgesics” (priority 1993, dated 2002)
Where a name gives a salt, the structure may show the parent alone. Read-outs that look alike come from different tables or passages of the source.

Columns and labels:
[1] = system: corneal epithelial cell regeneration in pigmented rabbits; assay: Toxicity test: corneal re-epithelialization (wound healing) after mechanical removal of epithelial cells; settings: for Animals with complete healing of the cornea / total animals per group: 2 drops at 4 hourly intervals for 6 days
Procedure: Healthy pigmented rabbits weighing about 1.5-2.2 kg were anesthetized and then corneal epithelial cells were scraped and removed using a blade under direct view of a microscope. The basal lamina was left intact while thorough de-epithelialization was performed and confirmed by staining the surface of the cornea with 1% fluorescein. […] Eyes in each group were instilled with two drops of the corresponding solution at 4 hourly intervals for 6 consecutive days. Wound healing (corneal re-epithelialization) was assessed on days 2, 3, 4, 5, 6, 7, and 8 following corneal abrasion using fluorescein staining with Fluor-I-Strip, and epithelial regeneration and migration were monitored by clinical examinations as well as wound surface area measurements.

[2] = system: corneal sensitivity of patients with corneal abrasion or after a refractive procedure; settings: 2 drops topical, morphine 0.5 mg/ml, mean ± SEM
Procedure: The following describes analgesic tests which were performed on patients following topical application of the prepared and previously described topical ophthalmic analgesic formulation. […] Five patients were selected to participate in this study. In all cases, three measurements were made in the following fashion: First, a baseline response (corneal sensitivity) was established by determining the response of the patient eye to a standard pain pressure using a Cochet Bonnet Aesthesiometer instrument and without applying any drug. Measurements were made by beginning with the nylon monofilament (0.12 mm diameter) fully extended. The tip was applied perpendicularly to the corneal surface and gently pressed until the fiber's first visible bending. […] The length was then recorded in units of mm. Second, a saline solution (2 drops) were instilled in the eye and at 10 and 20 minutes later the response of the patient's cornea to pain pressure was determined as described above. These repeated measurements served as a placebo effect for comparison purposes.
Again, an Aesthesiometer, based upon the principle of pressure transmitted axially by a nylon monofilament of known diameter but of variable length for a given bending stress, was applied to the corneal surface. […] The distance, in millimeters (mm) of the nylon monofilament is recorded and then converted to pressure in gram/square millimeter.

[3] = system: pain scores following knee surgery; settings: applied locally inside the joints following knee surgery; cited from earlier work
[4] = system: pupil of morphine-dependent subject; settings: applied topically to one eye of a morphine-dependent subject; cited from earlier work

## CCCOc1ccc(C(=O)OCCN(CC)CC)cc1N [Alcaine, proparacaine HCl]
[1]; pigmented, rabbit, in vivo
  Complete regeneration / wound healing by: ≤ 8 days
[1]; rabbit, in vivo
  Day on which eyes began to show epithelial regeneration: third day
  Effect of repeated topical application on corneal epithelial cell regeneration and migration: significantly prevented regeneration

## CN1CC[C@]23c4c5ccc(O)c4O[C@H]2[C@@H](O)C=C[C@H]3[C@H]1C5.O=S(=O)(O)O [Morphine, morphine sulphate]
[1]; day 1
  Animals with complete healing of the cornea / total animals per group: 0/6
[1]; day 2
  Animals with complete healing of the cornea / total animals per group: 0/6
[1]; day 3
  Animals with complete healing of the cornea / total animals per group: 0/6
[1]; day 4
  Animals with complete healing of the cornea / total animals per group: 1
[1]; day 4, sulphate
  Animals with complete healing of the cornea / total animals per group: 1/6
[1]; day 5, sulphate
  Animals with complete healing of the cornea / total animals per group: 3/6
[1]; day 6
  Animals with complete healing of the cornea / total animals per group: 4/6
[1]; day 7, sulphate
  Animals with complete healing of the cornea / total animals per group: 5/6
[1]; day 8
  Animals with complete healing of the cornea / total animals per group: 5/6
[2]; 10 min after treatment
  Corneal sensitivity expressed as pressure: 7.69 ± 2.16 grm/sq. mm
[2]; 20 min after treatment
  Corneal sensitivity expressed as pressure: 9.84 ± 1.00 grm/sq. mm
[3]
  Effect on pain scores: significantly reduced pain scores
  Time to maximal effect: 3 to 6 h

## C=CCN1CC[C@]23c4c5ccc(O)c4O[C@H]2C(=O)CC[C@@]3(O)[C@H]1C5 [naloxone]
[4]
  Effect on pupil of the same eye: pupillary dilation
